From US20110263642A1, “METHODS FOR TREATMENT OF MULTIPLE SCLEROSIS” (FibroGen, Inc., priority 2008, published 2011)
Like-named read-outs stand apart in the source and are kept apart here.

Tests used:
[1] = system: EAE animal model of multiple sclerosis; assay: EAE induced by MBP injection in Lewis rats, prophylactic versus treatment dosing (second series); assay type: in vivo
Method: In another series of experiments, the effectiveness of compounds and methods of the present invention on treating established multiple sclerosis in an EAE model was examined as follows. EAE was induced in female Lewis rats (200-220 g) as described above. Compound of the invention (30 mg/kg) or vehicle control was administered p.o. daily from day 3 to day 21 following MBP injection (prophylactic group) or from the day first symptoms appeared to day 21 (treatment group). Dexamethasone (1 mg/kg) was administered subcutaneously at 1 mg/kg from day 8 to day 12 following MBP injection.
Neurological scoring was performed daily from day 7 to day 21 following […]. Grading of disease severity (i.e., disease score) was based on the following observations performed by two different observers: 0=no abnormality; 1=distal weakness of the tail; 2=complete weakness of the tail; 3=mild weakness in one or two hindlimbs; 4=moderate paraparesia of one or two hindlimbs; 5=total paraplegia. Analysis of variance (ANOVA) was performed on data from the measured (clinical score) or the calculated (severity score) parameters. Fisher's Protected Least Significant Difference was used for pairwise comparisons. p value≦0.05 were considered significant.
Cumulative EAE disease score, used as a measure of overall disease severity, was determined by adding all disease/neurological scores for each animal over the time course of the experiment.

[2] = system: Oligodendrocytes (MO3.13 cells); assay: Ceramide-induced cell death of oligodendrocytes, Calcein AM viability; assay type: cell-based; conditions: for viability at 20 µM: ceramide 2.25 μM, compound 20 μM, non-ceramide control = 100
From the text: (See e.g., Craighead et al. (2000) Neurosci Lett. 278:125-8; Jana et al. (2007) J Neuroimmune Pharmacol. 2:184-93; Jana et al. (2009) J Neurol Sci. 278:5-15; Singh et al. (1998) J Biol. Chem. 273:20354-62.) In this model, addition of ceramide to cultured oligodendrocytes results in oxidative stress-induced cell death (i.e. apoptosis). The effect of compounds and methods of the present invention on the ability to improve oligodendrocyte viability following ceramide challenge was examined as follows. Oligodendrocytes (MO3.13 cells; Cedarlane Laboratories, Burlington, N.C.) were plated in 96-well culture dishes at a density of 4000 cells per well and cultured at 37° C., 10% CO2 in DMEM containing L-glutamine, sodium pyruvate, and 25 mM glucose (Mediatech Inc., Manassas, Va.) and supplemented with 10% FBS (Invitrogen Corporation, Carlsbad, Calif.). The next day, the plating media was removed and replaced with DMEM containing L-glutamine (Invitrogen Corporation, Carlsbad, Calif.) and supplemented with 5.5 mM glucose. Cells were then treated with vehicle (0.015% DMSO) or ceramide (Sigma-Aldrich, St. Louis, Mo.) plus vehicle (0.05% DMSO) or a compound of the invention (20 μM).
For cells treated longer than 3 days, half the media was removed after the third day of treatment and replaced with an equal volume of fresh treatment media containing vehicle (0.015% DMSO) or ceramide plus vehicle (0.05% DMSO) or a compound of the invention.
Cell viability was assessed 3, 4, and 5 days after treatment using the following protocol. Treatment media was removed from the cells and 100 ul of 1.67 uM Calcein AM reagent (Invitrogen Corporation, Carlsbad, Calif.) prepared in DMEM containing L-glutamine (Invitrogen Corporation, Carlsbad, Calif.) and supplemented with 5.5 mM glucose was added to each well. Cells were returned to 37° C. in a 10% CO2 incubator for approximately 30 minutes before assessing fluorescence (Ex 485 nm/Em 538 nm) using a microplate reader (Molecular Devices, Sunnyvale, Calif.). Images were taken of representative wells using a fluorescent microscope equipped with a camera (Nikon, Melville, N.Y.) and imaging software (Nikon, Melville, N.Y.).

## N#Cc1nc(C(=O)NCC(=O)O)c(O)c2c(Oc3ccccc3)cccc12 [Compound A, [(1-Cyano-4-hydroxy-5-phenoxy-isoquinoline-3-carbonyl)-amino]-acetic acid]
[1]; 30 mg/kg p.o., both prophylactic group and treatment group, FIGS. 4A and 4B
  cumulative disease score (AUC): reduced
[1]; prophylactic group: 30 mg/kg p.o. daily, day 3 to day 21
  reduction in disease severity compared to vehicle-treated control EAE animals: 31%
[1]; treatment group: 30 mg/kg p.o. daily, first symptom to day 21, p<0.05
  reduction in disease severity compared to vehicle-treated control EAE animals: 19%
[2]; 72 h, read-out: % Viable at Day 3
  viability at 20 µM: 82%
[2]; 96 h, read-out: % Viable at Day 4
  viability at 20 µM: 46%
[2]; 120 h, read-out: % Viable at Day 5
  viability at 20 µM: 33%
[2]; ceramide-challenged, day 5
  increase in viability compared to vehicle treated oligodendrocytes: 3 fold
